According to patent US10499642B2, “Isoxazoline-substituted benzamides and analogues as insecticides” (SYNGENTA PARTICIPATIONS AG, priority 2015, dated 2019):
Like-named read-outs stand apart in the source and are kept apart here.

Tests used:
Assay type in all cases: in vivo
[1] = tested on: Diabrotica Balteata; assay: Diabrotica balteata (corn root worm) maize sprout test; settings: 96 h, read-out: effect in at least one of the two categories (mortality or growth inhibition)
Procedure: Diabrotica Balteata, (Corn Root Worm)
Maize sprouts, placed on an agar layer in 24-well microtiter plates were treated with aqueous test solutions prepared from 10′000 ppm DMSO stock solutions by spraying. After drying, the plates were infested with L2 larvae (6 to 10 per well). The samples were assessed for mortality and growth inhibition in comparison to untreated samples 4 days after infestation. The following compounds gave an effect of at least 80% in at least one of the two categories (mortality or growth inhibition) at an application rate of 200 ppm: […]

[2] = tested on: Tetranychus urticae; assay: Tetranychus urticae (two-spotted spider mite) bean leaf disc test; settings: foliar, 192 h
Procedure: Tetranychus urticae (Two-Spotted Spider Mite):
Bean leaf discs on agar in 24-well microtiter plates were sprayed with aqueous test solutions prepared from 10′000 ppm DMSO stock solutions. After drying the leaf discs were infested with a mite population of mixed ages. The samples were assessed for mortality on mixed population (mobile stages) 8 days after infestation.

[3] = tested on: Thrips tabaci; assay: Thrips tabaci (onion thrips) sunflower leaf disc test; settings: foliar, 144 h
Procedure: Thrips tabaci (Onion Thrips):
Sunflower leaf discs were placed on agar in 24-well microtiter plates and sprayed with aqueous test solutions prepared from 10′000 ppm DMSO stock solutions. After drying the leaf discs were infested with a thrips population of mixed ages. The samples were assessed for mortality 6 days after infestation.

[4] = tested on: Spodoptera littoralis; assay: Spodoptera littoralis (Egyptian cotton leaf worm) cotton leaf disc test; settings: foliar, 72 h, read-out: control (at least one of mortality, anti-feedant effect, and growth inhibition)
Procedure: Spodoptera littoralis (Egyptian Cotton Leaf Worm)
Cotton leaf discs were placed on agar in 24-well microtiter plates and sprayed with aqueous test solutions prepared from 10′000 ppm DMSO stock solutions. After drying the leaf discs were infested with five L1 larvae. The samples were assessed for mortality, anti-feedant effect, and growth inhibition in comparison to untreated samples 3 days after infestation. Control of Spodoptera littoralis by a test sample is when at least one of mortality, anti-feedant effect, and growth inhibition is higher than the untreated sample.

[5] = tested on: Plutella xylostella; assay: Plutella xylostella (diamond back moth) artificial diet test; settings: 120 h, read-out: effect in at least one of the two categories (mortality or growth inhibition)
Procedure: Plutella xylostella (Diamond Back Moth):
24-well microtiter plates with artificial diet were treated with aqueous test solutions prepared from 10′000 ppm DMSO stock solutions by pipetting. After drying, the plates were infested with L2 larvae (10 to 15 per well). The samples were assessed for mortality and growth inhibition in comparison to untreated samples 5 days after infestation. The following compounds gave an effect of at least 80% in at least one of the two categories (mortality or growth inhibition) at an application rate of 200 ppm: […]

COC1=NO[C@@H](N(C(=O)OC(C)(C)C)C(=O)c2ccc(C3=NO[C@@](c4cc(Cl)c(Cl)c(Cl)c4)(C(F)(F)F)C3)cc2C)C1 (single isomer, unassigned) [Compound A153]
≥ 80%: percent effect (mortality or growth inhibition) at 200 ppm [1] | mortality at 200 ppm [2] | mortality at 200 ppm [3] | percent control (mortality, anti-feedant effect or growth inhibition) at 200 ppm [4] | percent effect (mortality or growth inhibition) at 200 ppm [5]

Cc1cc(C2=NO[C@@](c3cc(Cl)c(F)c(Cl)c3)(C(F)(F)F)C2)ccc1C(=O)N[C@H]1CC(Br)=NO1 (single isomer, unassigned) [Compound A146]
≥ 80%: percent effect (mortality or growth inhibition) at 200 ppm [1] | mortality at 200 ppm [2] | mortality at 200 ppm [3] | percent control (mortality, anti-feedant effect or growth inhibition) at 200 ppm [4] | percent effect (mortality or growth inhibition) at 200 ppm [5]

Cc1cc(C2=NO[C@@](c3cc(Cl)cc(Cl)c3)(C(F)(F)F)C2)ccc1C(=O)N[C@H]1CC(OCC(F)(F)F)=NO1 (single isomer, unassigned) [Compound A157]
≥ 80%: percent effect (mortality or growth inhibition) at 200 ppm [1] | mortality at 200 ppm [2] | mortality at 200 ppm [3] | percent control (mortality, anti-feedant effect or growth inhibition) at 200 ppm [4] | percent effect (mortality or growth inhibition) at 200 ppm [5]

COC1=NO[C@@H](NC(=O)c2ccc(C3=NO[C@@](c4cc(Cl)c(F)c(Cl)c4)(C(F)(F)F)C3)cc2C)C1 (single isomer, unassigned) [Compound A151]
≥ 80%: percent effect (mortality or growth inhibition) at 200 ppm [1] | mortality at 200 ppm [2] | mortality at 200 ppm [3] | percent control (mortality, anti-feedant effect or growth inhibition) at 200 ppm [4] | percent effect (mortality or growth inhibition) at 200 ppm [5]

O=C(NC1CC(Br)=NO1)c1ccc(C2=NO[C@@](c3cc(Cl)cc(Cl)c3)(C(F)(F)F)C2)cc1Cl (stereo partly drawn) [Compound A093]
≥ 80%: percent effect (mortality or growth inhibition) at 200 ppm [1] | mortality at 200 ppm [2] | mortality at 200 ppm [3] | percent control (mortality, anti-feedant effect or growth inhibition) at 200 ppm [4] | percent effect (mortality or growth inhibition) at 200 ppm [5]

CCS(=O)(=O)C1=NOC(NC(=O)c2ccc(C3=NO[C@@](c4cc(Cl)c(Cl)c(Cl)c4)(C(F)(F)F)C3)cc2C)C1 (stereo partly drawn) [Compound A053]
≥ 80%: percent effect (mortality or growth inhibition) at 200 ppm [1] | mortality at 200 ppm [2] | mortality at 200 ppm [3] | percent control (mortality, anti-feedant effect or growth inhibition) at 200 ppm [4] | percent effect (mortality or growth inhibition) at 200 ppm [5]

COC1=NO[C@H](N(C(=O)OC(C)(C)C)C(=O)c2ccc(C3=NO[C@@](c4cc(Cl)c(Cl)c(Cl)c4)(C(F)(F)F)C3)cc2C)C1 (single isomer, unassigned) [Compound A152]
≥ 80%: percent effect (mortality or growth inhibition) at 200 ppm [1] | mortality at 200 ppm [2] | mortality at 200 ppm [3] | percent control (mortality, anti-feedant effect or growth inhibition) at 200 ppm [4] | percent effect (mortality or growth inhibition) at 200 ppm [5]

COCC1=NOC(N(C(=O)OC(C)(C)C)C(=O)c2ccc(C3=NO[C@@](c4cc(Cl)c(F)c(Cl)c4)(C(F)(F)F)C3)cc2C)C1 (stereo partly drawn) [Compound A088]
≥ 80%: percent effect (mortality or growth inhibition) at 200 ppm [1] | mortality at 200 ppm [2] | mortality at 200 ppm [3] | percent control (mortality, anti-feedant effect or growth inhibition) at 200 ppm [4] | percent effect (mortality or growth inhibition) at 200 ppm [5]

CCOC(=O)C1=NOC(NC(=O)c2ccc(C3=NO[C@@](c4cc(Cl)c(F)c(Cl)c4)(C(F)(F)F)C3)cc2C)C1 (stereo partly drawn) [Compound A007, ethyl 5-[[4-[(5S)-5-(3,5-dichloro-4-fluoro-phenyl)-5-(trifluoromethyl)-4H-isoxazol-3-yl]-2-methyl-benzoyl]amino]-4,5-dihydroisoxazole-3-carboxylate]
≥ 80%: percent effect (mortality or growth inhibition) at 200 ppm [1] | mortality at 200 ppm [2] | mortality at 200 ppm [3] | percent control (mortality, anti-feedant effect or growth inhibition) at 200 ppm [4] | percent effect (mortality or growth inhibition) at 200 ppm [5]

Cc1cc(C2=NO[C@@](c3cc(Cl)c(F)c(Cl)c3)(C(F)(F)F)C2)ccc1C(=O)N(C(=O)OC(C)(C)C)C1CC(Cl)=NO1 (stereo partly drawn) [Compound A067, tert-butyl N-(3-chloro-4,5-dihydroisoxazol-5-yl)-N-[4-[(5S)-5-(3,5-dichloro-4-fluoro-phenyl)-5-(trifluoromethyl)-4H-isoxazol-3-yl]-2-methyl-benzoyl]carbamate]
≥ 80%: percent effect (mortality or growth inhibition) at 200 ppm [1] | mortality at 200 ppm [2] | mortality at 200 ppm [3] | percent control (mortality, anti-feedant effect or growth inhibition) at 200 ppm [4] | percent effect (mortality or growth inhibition) at 200 ppm [5]

Cc1cc(C2=NO[C@@](c3cc(Cl)c(F)c(Cl)c3)(C(F)(F)F)C2)ccc1C(=O)NC1CC(C(=O)O)=NO1 (stereo partly drawn) [Compound A117]
≥ 80%: percent effect (mortality or growth inhibition) at 200 ppm [1] | mortality at 200 ppm [2] | mortality at 200 ppm [3] | percent control (mortality, anti-feedant effect or growth inhibition) at 200 ppm [4] | percent effect (mortality or growth inhibition) at 200 ppm [5]

CCOC(=O)C1=NOC(N(C=O)C(=O)c2ccc(C3=NO[C@@](c4cc(Cl)c(F)c(Cl)c4)(C(F)(F)F)C3)cc2C)C1 (stereo partly drawn) [Compound A006, ethyl 5-[[4-[(5S)-5-(3,5-dichloro-4-fluoro-phenyl)-5-(trifluoromethyl)-4H-isoxazol-3-yl]-2-methyl-benzoyl]-formyl-amino]-4,5-dihydroisoxazole-3-carboxylate]
≥ 80%: percent effect (mortality or growth inhibition) at 200 ppm [1] | mortality at 200 ppm [3] | percent control (mortality, anti-feedant effect or growth inhibition) at 200 ppm [4] | percent effect (mortality or growth inhibition) at 200 ppm [5]

Cc1cc(C2=NO[C@@](c3cc(Cl)c(F)c(Cl)c3)(C(F)(F)F)C2)ccc1C(=O)N(C(=O)OC(C)(C)C)C1CC(COC2CCCCO2)=NO1 (stereo partly drawn) [Compound A068]
≥ 80%: percent effect (mortality or growth inhibition) at 200 ppm ([1]; application rate 200 ppm, maize sprouts, L2 larvae, 4 days after infestation) | mortality at 200 ppm ([2]; application rate 200 ppm, bean leaf discs, mixed population (mobile stages), 8 days after infestation, read-out: mortality) | mortality at 200 ppm ([3]; application rate 200 ppm, sunflower leaf discs, population of mixed ages, 6 days after infestation, read-out: mortality) | percent control (mortality, anti-feedant effect or growth inhibition) at 200 ppm ([4]; application rate 200 ppm, cotton leaf discs, L1 larvae, 3 days after infestation) | percent effect (mortality or growth inhibition) at 200 ppm ([5]; application rate 200 ppm, artificial diet, L2 larvae, 5 days after infestation)

CCOC1=NO[C@@H](NC(=O)c2ccc(C3=NO[C@@](c4cc(Cl)cc(Cl)c4)(C(F)(F)F)C3)cc2C)C1 (single isomer, unassigned) [Compound A159]
≥ 80%: percent effect (mortality or growth inhibition) at 200 ppm [1] | mortality at 200 ppm [2] | mortality at 200 ppm [3] | percent control (mortality, anti-feedant effect or growth inhibition) at 200 ppm [4] | percent effect (mortality or growth inhibition) at 200 ppm [5]
